The text below walks through data of patent US20260022142A1, “MACROCYCLIC IMMUNOMODULATORS” (Bristol-Myers Squibb Company, priority 2022, published 2026).

As a reminder, the IC50 is the concentration that inhibits the measured activity by half.

Numbered stars: 1 amine (or outer) side, 2 acyl side, 3 side chain; on linkers, the order of the positions; unused ones are H or OH. Bridge positions count the residues as written; N and C are the ends. Square brackets hold non-standard residues; d marks the D form. Peptide text beside a SMILES is read from it. * marks the point of attachment. ξ: configuration not given here. Phe(4-COOH) = N[C@@H](Cc1ccc(C(=O)O)cc1)C(=O)O; Bip = N[C@@H](Cc1ccc(-c2ccccc2)cc1)C(=O)O; X18 = O=C(C(CC1CCC(F)(F)CC1)N[*:1])[*:2]; Phe(3-F) = N[C@@H](Cc1cccc(F)c1)C(=O)O; Phe(3-Me) = Cc1cccc(C[C@H](N)C(=O)O)c1; X5 = CC(C)(CCN)[C@H](N[*:1])C(=O)[*:2]; NH(CH2)12COOH = O=C(O)CCCCCCCCCCCCN*; X4 = O=C([C@@H](N[*:1])C1CNC1)[*:2]; Val(3-OH) = CC(C)(O)[C@H](N)C(=O)O; X15 = C[C@H](N)C(N[*:1])C(=O)[*:2]; X17 = O=C(C(CN1CCOCC1)N[*:1])[*:2]; Aad = N[C@@H](CCCC(=O)O)C(=O)O; Cha = N[C@@H](CC1CCCCC1)C(=O)O; Thr(3ξ) = CC(O)[C@H](N)C(=O)O; Carboxymethyl = O=C(O)C*; Orn = NCCC[C@H](N)C(=O)O; Aun = NCCCCCCCCCCC(=O)O; Dab = NCC[C@H](N)C(=O)O; Nva = CCC[C@H](N)C(=O)O; Dap = NC[C@H](N)C(=O)O; AEEA = NCCOCCOCC(=O)O

This test deals with T1, PD-1/PD-L1 interaction (PE-labeled human PD-L1-Ig binding to Jurkat cell line over-expressing human PD-1) (Homo sapiens, UniProt Q15116).
T1 construct: expressed in transfected cells; host or cells: Jurkat
T1 sequence (Q15116 25-288): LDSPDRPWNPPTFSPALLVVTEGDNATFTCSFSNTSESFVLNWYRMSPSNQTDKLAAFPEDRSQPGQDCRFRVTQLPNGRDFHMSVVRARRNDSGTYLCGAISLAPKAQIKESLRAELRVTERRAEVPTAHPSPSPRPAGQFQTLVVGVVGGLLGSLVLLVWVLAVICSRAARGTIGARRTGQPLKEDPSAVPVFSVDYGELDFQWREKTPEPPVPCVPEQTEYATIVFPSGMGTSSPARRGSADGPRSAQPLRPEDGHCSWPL
Put plainly: Jurkat-PD-1 Cell Binding High-Content Screening Assay (CBA). The conditions noted are these: Jurkat cell line over-expressing human PD-1; PE-labeled PD-L1-Ig 20 nM final; read-out: Jurkat hPD1-PDL1 IC50. It is filed as cell-based. An outline of the steps:
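Binding of fluorescent PD-L1-Ig (20 nM final) to Jurkat-PD-1 cells was measured by automated imaging after 1 h, following a 2 h compound pre-treatment at 37° C.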
With `CCC[C@@H]1NC(=O)CSC[C@@H](C(=O)N[C@@H](CCN)C(=O)NCCOCCOCC(=O)NCCCCCCCCCCCCC(=O)O)NC(=O)[C@H](CO)NC(=O)[C@H](C(C)(C)O)NC(=O)[C@H](CC2CCCCC2)NC(=O)[C@H](CCN)NC(=O)[C@@H](CC(C)C)NC(=O)[C@H](CCCN)NC(=O)[C@H](Cc2ccc(OCC(=O)O)cc2)NC(=O)[C@H](Cc2ccc(-c3ccccc3)cc2)NC(=O)[C@H](Cc2ccc(OCC(=O)O)cc2)NC(=O)[C@H](Cc2cccc(C)c2)NC(=O)[C@H](CC(=O)O)NC(=O)[C@H](Cc2ccc(C(=O)O)cc2)NC1=O` [Compound 2254] ({CH2CO}-[Nva][Phe(4-COOH)]D[Phe(3-Me)]Y(Carboxymethyl)[Bip]Y(Carboxymethyl)[Orn][dL][Dab][Cha][Val(3-OH)]SC[Dab][AEEA]-{NH(CH2)12COOH}; thioether N-14), the IC50 was 10.1 nM.

Turning to `Cc1cccc(C[C@@H]2NC(=O)[C@H](CC(=O)O)NC(=O)[C@H](Cc3ccc(OCC(=O)O)cc3)NC(=O)[C@H](C3CNC3)NC(=O)CSC[C@@H](C(=O)N[C@@H](CCN)C(=O)NCCCCCCCCCCCCC(=O)O)NC(=O)[C@H](CO)NC(=O)[C@H](C(C)(C)O)NC(=O)[C@H](CC3CCCCC3)NC(=O)[C@H](CCN)NC(=O)[C@@H](CC(C)C)NC(=O)[C@H](CCCN)NC(=O)[C@H](Cc3ccc(OCC(=O)O)cc3)NC(=O)[C@H](Cc3ccc(-c4ccccc4)cc3)NC(=O)[C@H](Cc3ccc(OCC(=O)O)cc3)NC2=O)c1` [Compound 2256] ({CH2CO}-[X4]Y(Carboxymethyl)D[Phe(3-Me)]Y(Carboxymethyl)[Bip]Y(Carboxymethyl)[Orn][dL][Dab][Cha][Val(3-OH)]SC[Dab]-{NH(CH2)12COOH}; thioether N-14), the IC50 is 13.6 nM.

Regarding `Cc1cccc(C[C@@H]2NC(=O)[C@H](CC(=O)O)NC(=O)[C@H](Cc3ccc(OCC(=O)O)cc3)NC(=O)C([C@H](C)N)NC(=O)CSC[C@@H](C(=O)N[C@@H](CCN)C(=O)NCCCCCCCCCCCCC(=O)O)NC(=O)[C@H](CO)NC(=O)[C@H](C(C)(C)O)NC(=O)[C@H](CC3CCCCC3)NC(=O)[C@H](CCN)NC(=O)[C@@H](CC(C)C)NC(=O)[C@H](CCCN)NC(=O)[C@H](Cc3ccc(OCC(=O)O)cc3)NC(=O)[C@H](Cc3ccc(-c4ccccc4)cc3)NC(=O)[C@H](Cc3ccc(OCC(=O)O)cc3)NC2=O)c1` (stereo partly drawn) [Compound 2257] ({CH2CO}-[X15]Y(Carboxymethyl)D[Phe(3-Me)]Y(Carboxymethyl)[Bip]Y(Carboxymethyl)[Orn][dL][Dab][Cha][Val(3-OH)]SC[Dab]-{NH(CH2)12COOH}; thioether N-14), the IC50 was found to be 11.1 nM.

Consider `Cc1cccc(C[C@@H]2NC(=O)[C@H](CC(=O)O)NC(=O)[C@H](Cc3ccc(OCC(=O)O)cc3)NC(=O)C(CC3CCC(F)(F)CC3)NC(=O)CSC[C@@H](C(=O)N[C@@H](CCN)C(=O)NCCCCCCCCCCCCC(=O)O)NC(=O)[C@H](CO)NC(=O)[C@H](C(C)(C)O)NC(=O)[C@H](CC3CCCCC3)NC(=O)[C@H](CCN)NC(=O)[C@@H](CC(C)C)NC(=O)[C@H](CCCN)NC(=O)[C@H](Cc3ccc(OCC(=O)O)cc3)NC(=O)[C@H](Cc3ccc(-c4ccccc4)cc3)NC(=O)[C@H](Cc3ccc(OCC(=O)O)cc3)NC2=O)c1` (stereo partly drawn) [Compound 2258] ({CH2CO}-[X18]Y(Carboxymethyl)D[Phe(3-Me)]Y(Carboxymethyl)[Bip]Y(Carboxymethyl)[Orn][dL][Dab][Cha][Val(3-OH)]SC[Dab]-{NH(CH2)12COOH}; thioether N-14), for which the IC50 was 48.9 nM.

Take `Cc1cccc(C[C@@H]2NC(=O)[C@H](CC(=O)O)NC(=O)[C@H](Cc3ccc(OCC(=O)O)cc3)NC(=O)[C@H](CCCC(=O)O)NC(=O)CSC[C@@H](C(=O)N[C@@H](CCN)C(=O)NCCCCCCCCCCCCC(=O)O)NC(=O)[C@H](CO)NC(=O)[C@H](C(C)(C)O)NC(=O)[C@H](CC3CCCCC3)NC(=O)[C@H](CCN)NC(=O)[C@@H](CC(C)C)NC(=O)[C@H](CCCN)NC(=O)[C@H](Cc3ccc(OCC(=O)O)cc3)NC(=O)[C@H](Cc3ccc(-c4ccccc4)cc3)NC(=O)[C@H](Cc3ccc(OCC(=O)O)cc3)NC2=O)c1` [Compound 2259] ({CH2CO}-[Aad]Y(Carboxymethyl)D[Phe(3-Me)]Y(Carboxymethyl)[Bip]Y(Carboxymethyl)[Orn][dL][Dab][Cha][Val(3-OH)]SC[Dab]-{NH(CH2)12COOH}; thioether N-14): the IC50 was found to be 17.9 nM.

For the compound `Cc1cccc(C[C@@H]2NC(=O)[C@H](CC(=O)O)NC(=O)[C@H](Cc3ccc(OCC(=O)O)cc3)NC(=O)C(CN3CCOCC3)NC(=O)CSC[C@@H](C(=O)N[C@@H](CCN)C(=O)NCCCCCCCCCCCCC(=O)O)NC(=O)[C@H](CO)NC(=O)[C@H](C(C)(C)O)NC(=O)[C@H](CC3CCCCC3)NC(=O)[C@H](CCN)NC(=O)[C@@H](CC(C)C)NC(=O)[C@H](CCCN)NC(=O)[C@H](Cc3ccc(OCC(=O)O)cc3)NC(=O)[C@H](Cc3ccc(-c4ccccc4)cc3)NC(=O)[C@H](Cc3ccc(OCC(=O)O)cc3)NC2=O)c1` (stereo partly drawn) [Compound 2260] ({CH2CO}-[X17]Y(Carboxymethyl)D[Phe(3-Me)]Y(Carboxymethyl)[Bip]Y(Carboxymethyl)[Orn][dL][Dab][Cha][Val(3-OH)]SC[Dab]-{NH(CH2)12COOH}; thioether N-14), the IC50 is 9.4 nM.

For `Cc1cccc(C[C@@H]2NC(=O)[C@H](CC(=O)O)NC(=O)[C@H](Cc3ccc(OCC(=O)O)cc3)NC(=O)[C@H](CCN)NC(=O)CSC[C@@H](C(=O)N[C@H](C(=O)NCCCCCCCCCCC(=O)O)C(C)(C)CCN)NC(=O)[C@H](CO)NC(=O)[C@H](C(C)(C)O)NC(=O)[C@H](CC3CCCCC3)NC(=O)[C@H](CCN)NC(=O)[C@@H](CC(C)C)NC(=O)[C@H](CCCN)NC(=O)[C@H](Cc3ccc(OCC(=O)O)cc3)NC(=O)[C@H](Cc3ccc(-c4ccccc4)cc3)NC(=O)[C@H](Cc3ccc(OCC(=O)O)cc3)NC2=O)c1` [Compound 2261] ({CH2CO}-[Dab]Y(Carboxymethyl)D[Phe(3-Me)]Y(Carboxymethyl)[Bip]Y(Carboxymethyl)[Orn][dL][Dab][Cha][Val(3-OH)]SC[X5][Aun]-OH; thioether N-14), the IC50 was found to be 207 nM.

Take `Cc1cccc(C[C@@H]2NC(=O)[C@H](CC(=O)O)NC(=O)[C@H](Cc3ccc(OCC(=O)O)cc3)NC(=O)[C@H](CN)NC(=O)CSC[C@@H](C(=O)N[C@@H](CCN)C(=O)NCCOCCOCC(=O)NCCCCCCCCCCC(=O)O)NC(=O)[C@H](CCCN)NC(=O)[C@H](C(C)C)NC(=O)[C@H](CC3CCCCC3)NC(=O)[C@H](CCN)NC(=O)[C@@H](CC(C)C)NC(=O)[C@H](CCCN)NC(=O)[C@H](Cc3ccc(O)cc3)NC(=O)[C@H](Cc3ccc(-c4ccccc4)cc3)NC(=O)[C@H](Cc3cccc(F)c3)NC2=O)c1` [Compound 2262] ({CH2CO}-[Dap]Y(Carboxymethyl)D[Phe(3-Me)][Phe(3-F)][Bip]Y[Orn][dL][Dab][Cha]V[Orn]C[Dab][AEEA][Aun]-OH; thioether N-14): the IC50 was 8.3 nM.

With `Cc1cccc(C[C@@H]2NC(=O)[C@H](CC(=O)O)NC(=O)[C@H](Cc3ccc(OCC(=O)O)cc3)NC(=O)[C@H](Cc3ccc(OCC(=O)O)cc3)NC(=O)CSC[C@@H](C(=O)N[C@@H](CCN)C(=O)NCCCCCCCCCCC(=O)O)NC(=O)[C@H](C(C)O)NC(=O)[C@H](C(C)C)NC(=O)[C@H](CC3CCCCC3)NC(=O)[C@H](CCN)NC(=O)[C@@H](CC(C)C)NC(=O)[C@H](CCCN)NC(=O)[C@H](Cc3ccc(OCC(=O)O)cc3)NC(=O)[C@H](Cc3ccc(-c4ccccc4)cc3)NC(=O)[C@H](C(C)C)NC2=O)c1` (stereo partly drawn) [Compound 2263] ({CH2CO}-Y(Carboxymethyl)Y(Carboxymethyl)D[Phe(3-Me)]V[Bip]Y(Carboxymethyl)[Orn][dL][Dab][Cha]V[Thr(3ξ)]C[Dab][Aun]-OH; thioether N-14), the IC50 was found to be 38.2 nM.
